{
  "source": "paper PMC5218480",
  "about": "(PLoS ONE, 2017)",
  "system": "MV-4-11 cells",
  "test": "Gene expression microarray analysis (Affymetrix PrimeView) and GSEA",
  "type": "cell-based, human",
  "parameters": "RFU PODN (11730768_x_at) / Fold change /veh PODN (11730768_x_at) / RFU LINC00158 (11744669_a_at) / Fold change /veh LINC00158 (11744669_a_at) / RFU DUSP10 (11751237_a_at) / Fold change /veh DUSP10 (11751237_a_at) / RFU ID3 (11757404_x_at) / Fold change /veh ID3 (11757404_x_at) / RFU PLEKHG5 (11737974_s_at) / Fold change /veh PLEKHG5 (11737974_s_at) / RFU LRRC4B (11730491_at) / Fold change /veh LRRC4B (11730491_at) / RFU GIMAP4 (11747438_a_at) / Fold change /veh GIMAP4 (11747438_a_at) / RFU KRT8 (11758183_x_at) / Fold change /veh KRT8 (11758183_x_at) / RFU CNN1 (11734310_a_at) / Fold change /veh CNN1 (11734310_a_at) / RFU VPS37D (11726825_at) / Fold change /veh VPS37D (11726825_at) / RFU C10orf10 (11716522_x_at) / Fold change /veh C10orf10 (11716522_x_at) / RFU KIR2DL2 /// KIR2DL4 /// KIR2DL5A /// KIR2DL5B /// KIR2DS1 /// KIR2DS2 /// KIR2DS3 /// KIR2DS4 /// KIR3DL3 /// KIR3DL3 /// KIR3DS1 (11738374_at) / Fold change /veh KIR2DL2 /// KIR2DL4 /// KIR2DL5A /// KIR2DL5B /// KIR2DS1 /// KIR2DS2 /// KIR2DS3 /// KIR2DS4 /// KIR3DL3 /// KIR3DL3 /// KIR3DS1 (11738374_at) / RFU C1QL1 (11718748_at) / Fold change /veh C1QL1 (11718748_at) / RFU TMPRSS4 (11747572_a_at) / Fold change /veh TMPRSS4 (11747572_a_at) / RFU HAMP (11756126_x_at) / Fold change /veh HAMP (11756126_x_at) / RFU RNFT2 (11725882_a_at) / Fold change /veh RNFT2 (11725882_a_at) / RFU NR4A2 (11747474_a_at) / Fold change /veh NR4A2 (11747474_a_at) / RFU ABCC12 (11746883_a_at) / Fold change /veh ABCC12 (11746883_a_at) / RFU TMEM136 (11760407_x_at) / Fold change /veh TMEM136 (11760407_x_at) / RFU CLDN22 /// WWC2 (11732394_at) / Fold change /veh CLDN22 /// WWC2 (11732394_at) / RFU HLA-DPB1 (11760878_x_at) / Fold change /veh HLA-DPB1 (11760878_x_at) / RFU SPINT1 (11716480_a_at) / Fold change /veh SPINT1 (11716480_a_at) / RFU GAP43 (11754022_s_at) / Fold change /veh GAP43 (11754022_s_at) / RFU A4GNT (11735810_at) / Fold change /veh A4GNT (11735810_at) / RFU PRB3 (11715151_x_at) / Fold change /veh PRB3 (11715151_x_at) / RFU TUBB4B (11761932_at) / Fold change /veh TUBB4B (11761932_at) / RFU CAPN14 (11732068_a_at) / Fold change /veh CAPN14 (11732068_a_at) / RFU TMCC2 (11721928_a_at) / Fold change /veh TMCC2 (11721928_a_at) / RFU IRGQ (11745062_a_at) / Fold change /veh IRGQ (11745062_a_at) / RFU FAM174B (11720279_a_at) / Fold change /veh FAM174B (11720279_a_at) / RFU TMPRSS4 (11748680_a_at) / Fold change /veh TMPRSS4 (11748680_a_at) / RFU FAM212B (11763350_a_at) / Fold change /veh FAM212B (11763350_a_at) / RFU PLEKHG5 (11743358_a_at) / Fold change /veh PLEKHG5 (11743358_a_at) / RFU ZSCAN30 (11745921_a_at) / Fold change /veh ZSCAN30 (11745921_a_at) / RFU CMKLR1 (11741424_a_at) / Fold change /veh CMKLR1 (11741424_a_at) / RFU LOC101060620 /// MAPK8IP1 (11723275_at) / Fold change /veh LOC101060620 /// MAPK8IP1 (11723275_at) / RFU SPTSSB (11747773_x_at) / Fold change /veh SPTSSB (11747773_x_at) / RFU PRSS12 (11739890_at) / Fold change /veh PRSS12 (11739890_at) / RFU BIN1 (11741810_x_at) / Fold change /veh BIN1 (11741810_x_at) / RFU WNT11 (11732464_a_at) / Fold change /veh WNT11 (11732464_a_at) / RFU C10orf10 (11716521_a_at) / Fold change /veh C10orf10 (11716521_a_at) / RFU C5orf56 (11738089_at) / Fold change /veh C5orf56 (11738089_at) / RFU CYB561 (11721691_x_at) / Fold change /veh CYB561 (11721691_x_at) / RFU ANKRD19P (11752326_a_at) / Fold change /veh ANKRD19P (11752326_a_at) / RFU OR2T12 /// OR2T33 /// OR2T8 (11738714_s_at) / Fold change /veh OR2T12 /// OR2T33 /// OR2T8 (11738714_s_at) / RFU VCAN (11748164_a_at) / Fold change /veh VCAN (11748164_a_at) / RFU JSRP1 (11732532_at) / Fold change /veh JSRP1 (11732532_at) / RFU KRTAP10-11 (11738290_x_at) / Fold change /veh KRTAP10-11 (11738290_x_at) / RFU MYO3A (11730013_a_at) / Fold change /veh MYO3A (11730013_a_at) / RFU EBF3 (11725865_a_at) / Fold change /veh EBF3 (11725865_a_at) / RFU CAMK2N1 (11719241_x_at) / Fold change /veh CAMK2N1 (11719241_x_at) / RFU C5orf56 (11738088_a_at) / Fold change /veh C5orf56 (11738088_a_at) / RFU OLFML3 (11715873_a_at) / Fold change /veh OLFML3 (11715873_a_at) / RFU LOC100653217 /// NTM (11731650_a_at) / Fold change /veh LOC100653217 /// NTM (11731650_a_at) / RFU MAPK11 (11762145_a_at) / Fold change /veh MAPK11 (11762145_a_at) / RFU FIZ1 (11724087_x_at) / Fold change /veh FIZ1 (11724087_x_at) / RFU OASL (11726364_x_at) / Fold change /veh OASL (11726364_x_at) / RFU SOX15 (11748057_x_at) / Fold change /veh SOX15 (11748057_x_at) / RFU CD79A (11719716_a_at) / Fold change /veh CD79A (11719716_a_at) / RFU HIST1H1D (11736915_at) / Fold change /veh HIST1H1D (11736915_at) / RFU CASKIN2 (11723855_a_at) / Fold change /veh CASKIN2 (11723855_a_at) / RFU LOC730098 (11760151_x_at) / Fold change /veh LOC730098 (11760151_x_at) / RFU OR4N2 (11742367_at) / Fold change /veh OR4N2 (11742367_at) / RFU PRRT2 (11749266_a_at) / Fold change /veh PRRT2 (11749266_a_at) / RFU SNX32 (11753110_a_at) / Fold change /veh SNX32 (11753110_a_at) / RFU CDHR5 (11726645_a_at) / Fold change /veh CDHR5 (11726645_a_at) / RFU RCAN1 (11760418_a_at) / Fold change /veh RCAN1 (11760418_a_at) / RFU FAM167A (11723789_a_at) / Fold change /veh FAM167A (11723789_a_at) / RFU FAM26E (11764081_at) / Fold change /veh FAM26E (11764081_at) / RFU ISYNA1 (11749810_s_at) / Fold change /veh ISYNA1 (11749810_s_at) / RFU ACY1 (11761880_at) / Fold change /veh ACY1 (11761880_at) / RFU 11764098_at / Fold change /veh 11764098_at / RFU SAMD14 (11745864_x_at) / Fold change /veh SAMD14 (11745864_x_at) / RFU NPB (11741838_a_at) / Fold change /veh NPB (11741838_a_at) / RFU TMPRSS6 (11731388_a_at) / Fold change /veh TMPRSS6 (11731388_a_at) / RFU KRTAP10-2 (11738614_at) / Fold change /veh KRTAP10-2 (11738614_at) / RFU ARHGAP8 /// PRR5-ARHGAP8 (11727945_x_at) / Fold change /veh ARHGAP8 /// PRR5-ARHGAP8 (11727945_x_at) / RFU KRTAP5-7 /// NADSYN1 (11734609_at) / Fold change /veh KRTAP5-7 /// NADSYN1 (11734609_at) / RFU RASL12 (11751679_a_at) / Fold change /veh RASL12 (11751679_a_at) / RFU CDKN2B (11736163_a_at) / Fold change /veh CDKN2B (11736163_a_at) / RFU PRF1 (11729649_at) / Fold change /veh PRF1 (11729649_at) / RFU, ZNF638 /// ZNF638-IT1 / Fold change vs veh, ZNF638 /// ZNF638-IT1 / RFU, PANK3 / Fold change vs veh, PANK3 / RFU, SH3YL1 / Fold change vs veh, SH3YL1 / RFU, ZEB2 / Fold change vs veh, ZEB2 / RFU, NRIP1 / Fold change vs veh, NRIP1 / RFU, PTTG1IP / Fold change vs veh, PTTG1IP / RFU, CAPN2 / Fold change vs veh, CAPN2 / RFU, MED14 / Fold change vs veh, MED14 / RFU, SNORA58 / Fold change vs veh, SNORA58 / RFU, C1orf63 / Fold change vs veh, C1orf63 / RFU, LRRFIP1 / Fold change vs veh, LRRFIP1 / RFU, NDUFAF7 / Fold change vs veh, NDUFAF7 / RFU, SLC12A2 / Fold change vs veh, SLC12A2 / RFU, IBTK / Fold change vs veh, IBTK / RFU, ESF1 / Fold change vs veh, ESF1 / Fold change vs veh, TMEM50B / RFU, TAOK1 / Fold change vs veh, TAOK1 / RFU, ACBD3 / Fold change vs veh, ACBD3 / RFU, TMA16 / Fold change vs veh, TMA16 / RFU, RWDD3 / Fold change vs veh, RWDD3 / RFU, BCAT1 / Fold change vs veh, BCAT1 / RFU, EDEM3 / Fold change vs veh, EDEM3 / RFU, TMEM33 / Fold change vs veh, TMEM33 / RFU, WDR75 / Fold change vs veh, WDR75 / RFU, AHCTF1 / Fold change vs veh, AHCTF1 / RFU, TFRC / Fold change vs veh, TFRC / RFU, ZDHHC17 / Fold change vs veh, ZDHHC17 / RFU, NOM1 / Fold change vs veh, NOM1 / RFU, ARL8B / Fold change vs veh, ARL8B / RFU, ZBTB11 / Fold change vs veh, ZBTB11 / RFU, TAMM41 / Fold change vs veh, TAMM41 / RFU, KIAA1704 /// LOC100996395 / Fold change vs veh, KIAA1704 /// LOC100996395 / RFU, ING1 / Fold change vs veh, ING1 / RFU, TRMT61B / Fold change vs veh, TRMT61B / RFU, FUBP3 / Fold change vs veh, FUBP3 / RFU, TP53 / Fold change vs veh, TP53 / RFU, TNKS2 / Fold change vs veh, TNKS2 / RFU, ZFP14 / Fold change vs veh, ZFP14 / RFU, ACTR2 / Fold change vs veh, ACTR2 / RFU, PPP3R1 / Fold change vs veh, PPP3R1 / RFU, PIK3R1 / Fold change vs veh, PIK3R1 / RFU, HNRNPA1 / Fold change vs veh, HNRNPA1 / RFU, RNF170 / Fold change vs veh, RNF170 / RFU, ZNF28 / Fold change vs veh, ZNF28 / RFU, RNGTT / Fold change vs veh, RNGTT / RFU, OGT / Fold change vs veh, OGT / RFU, BRD1 / Fold change vs veh, BRD1 / RFU, MARS / Fold change vs veh, MARS / RFU, ZNF655 / Fold change vs veh, ZNF655 / RFU, FAHD1 / Fold change vs veh, FAHD1 / RFU, BDP1 / Fold change vs veh, BDP1 / RFU, LRRCC1 / Fold change vs veh, LRRCC1 / RFU, ARID1A / Fold change vs veh, ARID1A / RFU, ZNF146 / Fold change vs veh, ZNF146 / RFU, ZNF330 / Fold change vs veh, ZNF330 / RFU, GPN3 / Fold change vs veh, GPN3 / RFU, C9orf123 / Fold change vs veh, C9orf123 / RFU, N4BP2L2 / Fold change vs veh, N4BP2L2 / RFU, ARFIP1 / Fold change vs veh, ARFIP1 / RFU, FAM179B / Fold change vs veh, FAM179B / RFU, BCL10 / Fold change vs veh, BCL10 / RFU, UHRF1BP1L / Fold change vs veh, UHRF1BP1L / RFU, BET1 / Fold change vs veh, BET1 / RFU, CNOT2 / Fold change vs veh, CNOT2 / RFU, ZNF268 / Fold change vs veh, ZNF268 / Fold change vs veh, ZNF507 / RFU, DGCR2 / Fold change vs veh, DGCR2 / RFU, WDSUB1 / Fold change vs veh, WDSUB1 / Fold change vs veh, HSP90B1 /// MIR3652 / RFU, ADSS / Fold change vs veh, ADSS / RFU, GK / Fold change vs veh, GK / RFU, ZNF148 / Fold change vs veh, ZNF148 / RFU, TAF9 / Fold change vs veh, TAF9 / RFU, SLC1A5 / Fold change vs veh, SLC1A5 / RFU, SLMO2 / Fold change vs veh, SLMO2 / RFU, ABCC4 / Fold change vs veh, ABCC4 / RFU, LOC101060439 /// RAP1B / Fold change vs veh, LOC101060439 /// RAP1B / RFU, RFX7 / Fold change vs veh, RFX7 / RFU, GTPBP10 / Fold change vs veh, GTPBP10 / RFU, CNEP1R1 / Fold change vs veh, CNEP1R1 / RFU, BIVM-ERCC5 /// ERCC5 / Fold change vs veh, BIVM-ERCC5 /// ERCC5 / RFU, ILF3 / Fold change vs veh, ILF3 / RFU 11762660_at / Fold change /veh 11762660_at / RFU VCAN (11757783_s_at) / Fold change /veh VCAN (11757783_s_at) / RFU DDX43 (11728927_at) / Fold change /veh DDX43 (11728927_at) / RFU KRT8 (11758188_x_at) / Fold change /veh KRT8 (11758188_x_at) / RFU NKD1 (11759106_at) / Fold change /veh NKD1 (11759106_at) / RFU SRD5A1 (11742802_a_at) / Fold change /veh SRD5A1 (11742802_a_at) / RFU TPSAB1 /// TPSB2 (11721975_s_at) / Fold change /veh TPSAB1 /// TPSB2 (11721975_s_at) / RFU GSTM3 (11746129_a_at) / Fold change /veh GSTM3 (11746129_a_at) / RFU IL23R (11737362_x_at) / Fold change /veh IL23R (11737362_x_at) / RFU TMEM51 (11727254_a_at) / Fold change /veh TMEM51 (11727254_a_at) / RFU PIWIL2 (11732686_x_at) / Fold change /veh PIWIL2 (11732686_x_at) / RFU ORM1 (11744905_x_at) / Fold change /veh ORM1 (11744905_x_at) / RFU CCDC152 (11743942_at) / Fold change /veh CCDC152 (11743942_at) / RFU ECM1 (11717891_a_at) / Fold change /veh ECM1 (11717891_a_at) / RFU IL23R (11748794_a_at) / Fold change /veh IL23R (11748794_a_at) / RFU TNFAIP8L3 (11732012_x_at) / Fold change /veh TNFAIP8L3 (11732012_x_at) / RFU MBOAT4 (11741988_at) / Fold change /veh MBOAT4 (11741988_at) / RFU 11764193_at / Fold change /veh 11764193_at / RFU TMEM53 (11763286_at) / Fold change /veh TMEM53 (11763286_at) / RFU MAGEB2 (11727129_at) / Fold change /veh MAGEB2 (11727129_at) / RFU TMEM200A (11744735_a_at) / Fold change /veh TMEM200A (11744735_a_at) / RFU CCDC152 (11751479_a_at) / Fold change /veh CCDC152 (11751479_a_at) / RFU FAM211A (11726209_a_at) / Fold change /veh FAM211A (11726209_a_at) / RFU RGS16 (11746705_a_at) / Fold change /veh RGS16 (11746705_a_at) / RFU VCAN (11755009_s_at) / Fold change /veh VCAN (11755009_s_at) / RFU RHOB (11743442_s_at) / Fold change /veh RHOB (11743442_s_at) / RFU RGS16 (11720943_a_at) / Fold change /veh RGS16 (11720943_a_at) / RFU RGS16 (11720944_at) / Fold change /veh RGS16 (11720944_at) / RFU, VPS4B / Fold change vs veh, VPS4B / RFU, CREB1 / Fold change vs veh, CREB1 / RFU, DNAJC13 / Fold change vs veh, DNAJC13 / RFU, GNAQ / Fold change vs veh, GNAQ / RFU, CDK5R1 / Fold change vs veh, CDK5R1 / RFU, ZRANB3 / Fold change vs veh, ZRANB3 / RFU, CUL4A / Fold change vs veh, CUL4A / RFU, CCNY / Fold change vs veh, CCNY / RFU, UFL1 / Fold change vs veh, UFL1 / RFU, COG3 / Fold change vs veh, COG3 / RFU, DIAPH2 / Fold change vs veh, DIAPH2 / RFU, SKA2 / Fold change vs veh, SKA2 / RFU, AFF3 / Fold change vs veh, AFF3 / RFU, LMF1 / Fold change vs veh, LMF1 / RFU, IPO11 / Fold change vs veh, IPO11 / RFU, DFFB / Fold change vs veh, DFFB / RFU, FOXP1 / Fold change vs veh, FOXP1 / RFU, CARD8 / Fold change vs veh, CARD8 / RFU, STRN3 / Fold change vs veh, STRN3 / RFU, ADK / Fold change vs veh, ADK / RFU, RASSF2 / Fold change vs veh, RASSF2 / RFU, WIPF1 / Fold change vs veh, WIPF1 / RFU, LARP1B / Fold change vs veh, LARP1B / RFU, RASA1 / Fold change vs veh, RASA1 / RFU, RB1 / Fold change vs veh, RB1 / RFU, PPFIA1 / Fold change vs veh, PPFIA1 / RFU, MAT2A / Fold change vs veh, MAT2A / RFU, CCT5 / Fold change vs veh, CCT5 / RFU, WDR92 / Fold change vs veh, WDR92 / RFU, CUX1 / Fold change vs veh, CUX1 / RFU, TTC7A / Fold change vs veh, TTC7A / RFU, TMEM135 / Fold change vs veh, TMEM135 / RFU, DEPTOR / Fold change vs veh, DEPTOR / RFU, CPM / Fold change vs veh, CPM / RFU, DNAJB6 / Fold change vs veh, DNAJB6 / RFU, CACNA2D3 / Fold change vs veh, CACNA2D3 / RFU, DTX4 / Fold change vs veh, DTX4 / RFU, TFCP2 / Fold change vs veh, TFCP2 / RFU, GMCL1 /// GMCL1P1 / Fold change vs veh, GMCL1 /// GMCL1P1 / RFU, AEBP2 / Fold change vs veh, AEBP2 / RFU, SNHG1 /// SNORD22 /// SNORD25 /// SNORD26 /// SNORD27 /// SNORD28 /// SNORD29 /// SNORD31 / Fold change vs veh, SNHG1 /// SNORD22 /// SNORD25 /// SNORD26 /// SNORD27 /// SNORD28 /// SNORD29 /// SNORD31 / Fold change (Aza/veh), C12orf56 (ProbeSet 11735607_a_at) / Fold change (ACY-1035/veh), C12orf56 (ProbeSet 11735607_a_at) / Fold change (Aza/veh), FGFR1OP (ProbeSet 11751329_s_at) / Fold change (ACY-1035/veh), FGFR1OP (ProbeSet 11751329_s_at) / Fold change (Aza/veh), VPS36 (ProbeSet 11739960_a_at) / Fold change (ACY-1035/veh), VPS36 (ProbeSet 11739960_a_at) / RFU SYPL1 (11715823_x_at) / Fold change /veh SYPL1 (11715823_x_at) / RFU IGFBP7 (11715501_s_at) / Fold change /veh IGFBP7 (11715501_s_at) / RFU REEP3 (11722064_at) / Fold change /veh REEP3 (11722064_at) / RFU IGLL1 (11728026_x_at) / Fold change /veh IGLL1 (11728026_x_at): dose or concentration left out as unconfirmed",
  "details": "MV-4-11 cells, 48 hours",
  "data": [
    {"smiles": "Nc1ccc(-c2cccs2)cc1NC(=O)c1ccc2c(c1)cc(C1CC1)n2CCN1CCOCC1", "note": "[ACY-1035]", "values": [
      {"measurement": "Fold change /veh 11762660_at", "value": 0.98}
    ]}
  ]
}
